Data taken from patent US10155027B2, “Alpha-galactosidase A and 1-deoxygalactonojirimycin co-formulation for the treatment of fabry disease” (Amicus Therapeutics, Inc., priority 2012, dated 2018).
Where a name gives a salt, the structure may show the parent alone. Read-outs that look alike come from different tables or passages of the source.

Columns and labels:
[1] = Phase 1 crossover absolute bioavailability, 150 mg oral capsule vs 150 mg IV infusion (Cohort 4); format: in vivo, human; conditions: for Vd: iv, 150 mg; for Cmax: read-out: Cmax (geometric mean); for AUC(0-t): read-out: AUC0-t (geometric mean); for AUC(0-inf): read-out: AUC0-∞ (geometric mean); for Tmax: read-out: tmax (median); for half-life: read-out: t½ (arithmetic mean) (converted)
Experimental: (§1) Healthy volunteers received migalastat HCl (DGJ HCl) via the intravenous (IV) route of administration to evaluate safety, tolerability, and pharmacokinetics. Another study was performed to determine the absolute bioavailability of migalastat after an oral capsule dose as compared to an IV administered dose of migalastat HCl in healthy volunteers. The absolute bioavailability arm was added to determine the exposure ratio of a 150 mg oral dose relative to a 150 mg dose administered as an IV infusion.
(§2) Type of Study: This Phase 1 study was a single-center study consisting of 2 designs. Cohorts 1, 2, and 3 were performed according to a randomized, double-blind, placebo-controlled, single ascending dose (SAD) IV study design to evaluate the safety, tolerability, and PK of IV administered migalastat HCl or IV administered placebo in healthy subjects. Cohort 4 was an open-label, randomized two-way crossover arm designed to assess the absolute bioavailability of orally administered migalastat HCl relative to IV administered migalastat HCl in healthy subjects.
Cohort 4 consisted of 2 sequential treatment periods with a washout period of 7 days between study drug administrations (FIG. 13). Cohort 4 enrolled 10 subjects all of whom received active drug (no placebo was administered). Cohort 4 was randomized such that 5 subjects received the oral formulation and 5 subjects received the IV formulation during Period 1, followed by the alternate formulation during Period 2. • * During Period 1, all Day −1 through Day 3 assessments were performed. ** The washout period was 7 days. *** During Period 2, subjects repeated all Day −1 through Day 3 assessments.
Cohort 4: Period 1: 150 mg migalastat HCl capsule (n=5) or 150 mg migalastat HCl via IV infusion (n=5). Period 2: 150 mg migalastat HCl capsule (n=5) or 150 mg migalastat HCl via IV infusion (n=5)
The migalastat HCl used for infusion was 50 mg/ml and the placebo was 0.9% sodium chloride. The oral migalastat HCl was administered as a 150 mg gelatin […].

[2] = Phase 1 single ascending dose 2-hour IV infusion PK in healthy subjects (Cohorts 1-3); format: in vivo, human; conditions: for Vd / AUC(0-t) / AUC(0-inf) / Tmax / half-life / Cmax: human, plasma; for Vd: iv; for AUC(0-t): read-out: AUC0-t (geometric mean)
Experimental: as §1, §2
Cohorts 1, 2, 3: Subjects in Cohorts 1, 2, and 3 received IV administered single ascending doses of migalastat HCl. Seven subjects were enrolled into each cohort (5 subjects randomized to migalastat HCl and 2 subjects randomized to placebo). Dosing of Cohorts 1, 2, and 3 was staggered to allow for safety and tolerability review before proceeding with the next group. Therefore, Cohorts 1, 2, and 3 were each divided into 2 sub-groups: Group A (2 subjects randomized to migalastat HCl and 1 subject randomized to placebo) and Group B (3 subjects randomized to migalastat HCl and 1 subject randomized to placebo). Subjects in Group B were dosed the day following completion of Group A dosing. Except for Cohort 3B, which was dosed 31 days after Cohort 3A because an interim PK review was performed on emerged data from Cohort 3A. Additionally, initiation of infusion was staggered by 60 minutes for Group A subjects, and by 30 minutes for Group B subjects (see FIG. 12).
Subjects enrolled in Cohorts 1, 2, and 3 were randomized to receive one of the following doses of migalastat HCl (n=5) or placebo (n=2): […]

[3] = General toxicology NOAEL, monkey; format: in vivo
[4] = General toxicology NOAEL, rat; format: in vivo
[5] = Phase 2a study of oral migalastat HCl co-administered with agalsidase in Fabry patients; format: in vivo, human; conditions: 23 Fabry patients; single oral 150 mg with 0.2, 0.5, and 1.0 mg/kg agalsidase
[6] = not given; remark: listed apart in the source
[7] = 1.0 mg/kg vs 0.3 mg/kg, theoretical 3.33
[8] = 10 mg/kg vs 0.3 mg/kg, theoretical 33.3
[9] = predicted human exposure at 0.3 mg/kg IV
[10] = predicted human exposure at 10.0 mg/kg IV
[11] = predicted exposure at 0.3 mg/kg IV
[12] = predicted exposure at 10.0 mg/kg IV

With `OC[C@H]1NC[C@H](O)[C@@H](O)[C@H]1O` [migalastat HCl, (2R,3S,4R,5S)-2-(hydroxymethyl) piperdine-3,4,5-triol] the “CLT (arithmetic mean)” value ([1]; 150 mg IV) was 9.34 L/h, the “geometric mean AUC0-t and AUC0-∞, IV relative to oral” value ([1]; 150 mg IV vs 150 mg oral) was “approximately 1.3 fold” and the “geometric mean Cmax, IV relative to oral” value ([1]; 150 mg IV vs 150 mg oral) was “approximately 1.9 fold”. For the same molecule, the “maximum arithmetic mean plasma concentrations, IV relative to oral” value ([1]; 150 mg IV vs 150 mg oral) was “approximately 2 fold”, the “CLT/F (arithmetic mean)” value ([1]; 150 mg oral) was 12.8 L/h and the “absolute oral bioavailability based on AUC0-t (Percentage Test/Reference)” value ([1]; 150 mg oral vs 150 mg IV) was 74.3%. For the same molecule, the “absolute oral bioavailability based on AUC0-∞ (Percentage Test/Reference)” value ([1]; 150 mg oral vs 150 mg IV) was 74.6%, the Vd ([1]; human, plasma, 150 mg IV, read-out: Vss (arithmetic mean)) was 30.2 L and the Vd ([1]; human, plasma, 150 mg IV, read-out: Vz (arithmetic mean)) was 59.4 L. It also gave a Cmax ([1]; human, plasma, 150 mg IV, 2-hour infusion) of 3380 ng/mL, an AUC(0-t) ([1]; human, plasma, 150 mg IV) of 13200 ng·h/mL and an AUC(0-inf) ([1]; human, plasma, 150 mg IV) of 13300 ng·h/mL. It also gave a Tmax ([1]; human, plasma, 150 mg IV) of 1.93 h, a half-life ([1]; human, plasma, 150 mg IV) of 4.54 h and an AUC(0-t) ([1]; human, plasma, 150 mg oral) of 9780 ng·h/mL. It also gave an AUC(0-inf) ([1]; human, plasma, 150 mg oral) of 9880 ng·h/mL, a Cmax ([1]; human, plasma, 150 mg oral) of 1790 ng/mL and a Vd/F ([1]; human, plasma, 150 mg oral, read-out: Vz/F (arithmetic mean)) of 123 L. The Tmax ([1]; human, plasma, 150 mg oral) was 2.75 h, the half-life ([1]; human, plasma, 150 mg oral) was 7.28 h and the “CLT (arithmetic mean)” value ([2]; 0.3 mg/kg IV) was 6.59 L/h. For the same molecule, the “CLT (arithmetic mean)” value ([2]; 1.0 mg/kg IV) was 7.68 L/h, the “Ratio Test/Reference, AUC0-t” value [2, 7] was 3.01 and the “Ratio Test/Reference, AUC0-∞” value [2, 7] was 2.99. For the same molecule, the “Ratio Test/Reference, Cmax” value [2, 7] was 2.89, the “CLT (arithmetic mean)” value ([2]; 10 mg/kg IV) was 7.40 L/h and the “Ratio Test/Reference, AUC0-t” value [2, 8] was 35.5. For the same molecule, the “Ratio Test/Reference, AUC0-∞” value [2, 8] was 35.2, the “Ratio Test/Reference, Cmax” value [2, 8] was 33.9 and the “dose proportionality of plasma exposure parameters” value ([2]; 0.3 to 10 mg/kg single ascending IV dose range) was “appeared to be dose proportional”. For the same molecule, the Vd ([2]; 0.3 mg/kg, 0.3 mg/kg IV, read-out: Vss (arithmetic mean)) was 17.9 L, the Vd ([2]; 0.3 mg/kg, 0.3 mg/kg IV, read-out: Vz (arithmetic mean)) was 19.9 L and the Vd ([2]; 1 mg/kg, 1.0 mg/kg IV, read-out: Vss (arithmetic mean)) was 24.2 L. It also gave a Vd ([2]; 1 mg/kg, 1.0 mg/kg IV, read-out: Vz (arithmetic mean)) of 35 L, a Vd ([2]; 10 mg/kg, 10 mg/kg IV, read-out: Vss (arithmetic mean)) of 27.2 L and a Vd ([2]; 10 mg/kg, 10 mg/kg IV, read-out: Vz (arithmetic mean)) of 107 L. The Vd ([2]; 0.3 to 10 mg/kg IV, read-out: Vss, range over doses) was 17.9 to 27.2 L, the Vd ([2]; 0.3 to 10 mg/kg IV, read-out: arithmetic mean Vz, range over doses) was 19.9 to 107 L and the AUC(0-t) ([2]; 0.3 mg/kg IV) was 2280 ng·h/mL. It also gave an AUC(0-inf) ([2]; 0.3 mg/kg IV, read-out: AUC0-∞ (geometric mean)) of 2320 ng·h/mL, a Tmax ([2]; 0.3 mg/kg IV, read-out: tmax (median)) of 1.93 h and a half-life ([2]; 0.3 mg/kg IV, read-out: t½ (arithmetic mean) (converted)) of 2.09 h. For the same molecule, the AUC(0-t) ([2]; 1.0 mg/kg IV) was 6860 ng·h/mL, the AUC(0-inf) ([2]; 1.0 mg/kg IV, read-out: AUC0-∞ (geometric mean)) was 6920 ng·h/mL and the Tmax ([2]; 1.0 mg/kg IV, read-out: tmax (median)) was 1.93 h. The half-life ([2]; 1.0 mg/kg IV, read-out: t½ (arithmetic mean) (converted)) was 3.21 h, the AUC(0-t) ([2]; 10 mg/kg IV) was 81100 ng·h/mL and the AUC(0-inf) ([2]; 10 mg/kg IV, read-out: AUC0-∞ (geometric mean)) was 81400 ng·h/mL. The Tmax ([2]; 10 mg/kg IV, read-out: tmax (median)) was 1.93 h, the half-life ([2]; 10 mg/kg IV, read-out: t½ (arithmetic mean) (converted)) was 10 h and the half-life ([2]; 0.3 to 10 mg/kg IV, read-out: arithmetic mean apparent terminal t½, range over doses) was 2.09 to 10 h. It also gave an AUC(0-inf) ([2]; 0.3 to 10 mg/kg IV, read-out: geometric mean AUC0-∞, range over doses) of 2320 to 81400 ng·h/mL, a Cmax ([2]; 0.3 to 10 mg/kg IV, read-out: geometric mean Cmax, range over doses) of 609 to 20700 ng/mL and a Tmax ([2]; dose levels of 0.3, 1.0, and 10 mg/kg IV, post start of infusion, read-out: median tmax) of 1.93 h. It also gave a Cmax ([2]; 0.3 mg/kg IV, 2-hour infusion, read-out: Cmax (geometric mean)) of 609 ng/mL, a Cmax ([2]; 1.0 mg/kg IV, 2-hour infusion, read-out: Cmax (geometric mean)) of 1760 ng/mL and a Cmax ([2]; 10 mg/kg IV, 2-hour infusion, read-out: Cmax (geometric mean)) of 20700 ng/mL. The AUC ([3]; monkey, in vivo, 500 mg/kg/day) was 30600 ng·h/mL, the Cmax ([3]; monkey, in vivo, 500 mg/kg/day) was 24500 ng/mL and the NOAEL ([3]; monkey, in vivo, general toxicology) was 500 mg/kg/day. The “Fold Cover to NOAEL AUC, Monkey” value [3, 9] was 165, the “Fold Cover to NOAEL Cmax, Monkey” value [3, 9] was 68 and the “Fold Cover to NOAEL AUC, Monkey” value [3, 10] was 4.98. The “Fold Cover to NOAEL Cmax, Monkey” value [3, 10] was 2.02, the “Fold Cover to NOAEL AUC, Rat” value [4, 9] was 134 and the “Fold Cover to NOAEL Cmax, Rat” value [4, 9] was 65. For the same molecule, the “Fold Cover to NOAEL AUC, Rat” value [4, 10] was 4.05, the “Fold Cover to NOAEL Cmax, Rat” value [4, 10] was 1.93 and the AUC ([4]; rat, in vivo, 1500 mg/kg/day) was 24900 ng·h/mL. The Cmax ([4]; rat, in vivo, 1500 mg/kg/day) was 23400 ng/mL, the NOAEL ([4]; rat, in vivo, general toxicology) was 1500 mg/kg/day and the tolerability (oral 150 mg capsule, healthy volunteers and Fabry patients) was “well tolerated”. The linearity of exposure (oral administrations) was “linear exposures to 1250 mg”, the tolerability (single dose administrations up to 2000 mg, healthy volunteers, Phase 1) was “well tolerated” and the “tissue uptake of active α-Gal A into skin” value [5] was “improved tissue uptake of active α-Gal A into skin”. The “Fold Cover to AUC from human oral 1250 mg, Max” value [6, 11] was 62, the “Fold Cover to AUC from human oral 1250 mg, Median” value [6, 11] was 39 and the “Fold Cover to AUC from human oral 1250 mg, Min” value [6, 11] was 15.5. The “Fold Cover to Cmax from human oral 1250 mg, Max” value [6, 11] was 61, the “Fold Cover to Cmax from human oral 1250 mg, Median” value [6, 11] was 36 and the “Fold Cover to Cmax from human oral 1250 mg, Min” value [6, 11] was 2.6. The “Fold Cover to AUC from human oral 1250 mg, Max” value [6, 12] was 1.89, the “Fold Cover to AUC from human oral 1250 mg, Median” value [6, 12] was 1.19 and the “Fold Cover to AUC from human oral 1250 mg, Min” value [6, 12] was 0.47. The “Fold Cover to Cmax from human oral 1250 mg, Max” value [6, 12] was 1.81, the “Fold Cover to Cmax from human oral 1250 mg, Median” value [6, 12] was 1.07 and the “Fold Cover to Cmax from human oral 1250 mg, Min” value [6, 12] was 0.08.
